Results published in ChEMBL document CHEMBL4041540, “In silico selection and cell-based characterization of selective and bioactive compounds for androgen-dependent prostate cancer cell” (Bioorg Med Chem Lett, 2017).
Activity calls are given as the source filed them. No cut-off for these calls is given here.

Columns and labels:
[1] = target: T1, Androgen receptor (Homo sapiens) (UniProt P10275); experiment: Inhibition of AR signaling pathway in testosterone-stimulated human LNCAP cells assessed as cell growth inhibition at 100 uM after 6 days by MTT assay relative to control
T1 sequence (whole entry): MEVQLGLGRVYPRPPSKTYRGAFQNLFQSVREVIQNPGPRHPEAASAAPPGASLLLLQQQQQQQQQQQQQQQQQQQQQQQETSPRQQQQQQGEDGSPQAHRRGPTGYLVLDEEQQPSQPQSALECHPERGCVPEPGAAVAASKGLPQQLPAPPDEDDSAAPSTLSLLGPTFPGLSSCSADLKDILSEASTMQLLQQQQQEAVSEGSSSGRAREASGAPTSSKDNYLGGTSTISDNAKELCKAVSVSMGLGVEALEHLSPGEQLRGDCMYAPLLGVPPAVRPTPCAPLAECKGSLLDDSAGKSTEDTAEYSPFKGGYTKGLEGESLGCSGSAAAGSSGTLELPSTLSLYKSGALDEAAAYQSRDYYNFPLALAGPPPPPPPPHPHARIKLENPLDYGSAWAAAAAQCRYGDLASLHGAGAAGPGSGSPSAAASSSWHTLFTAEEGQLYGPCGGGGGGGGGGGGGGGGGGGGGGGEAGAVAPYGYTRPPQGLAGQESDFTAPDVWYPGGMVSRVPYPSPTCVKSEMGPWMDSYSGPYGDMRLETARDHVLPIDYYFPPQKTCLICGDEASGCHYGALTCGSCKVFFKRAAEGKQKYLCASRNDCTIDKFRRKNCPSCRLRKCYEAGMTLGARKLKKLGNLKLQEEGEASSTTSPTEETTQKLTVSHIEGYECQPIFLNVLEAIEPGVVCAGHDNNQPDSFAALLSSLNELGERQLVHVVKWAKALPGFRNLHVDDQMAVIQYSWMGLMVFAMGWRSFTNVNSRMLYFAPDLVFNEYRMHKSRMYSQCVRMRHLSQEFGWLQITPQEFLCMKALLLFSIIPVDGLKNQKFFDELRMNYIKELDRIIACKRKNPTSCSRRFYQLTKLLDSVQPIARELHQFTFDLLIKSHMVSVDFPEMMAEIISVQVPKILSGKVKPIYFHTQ

PC-3 = experiment: Growth inhibition of human PC3 cells at 100 uM after 72 hrs by MTT assay relative to control; assay type: functional; details: PC-3, 72 h, read-out: GI
DU-145 = experiment: Growth inhibition of human DU145 cells at 100 uM after 72 hrs by MTT assay relative to control; assay type: functional; details: DU-145, 72 h, read-out: GI
LNCaP [2] = experiment: Growth inhibition of human LNCAP cells at 100 uM after 72 hrs by MTT assay relative to control; assay type: functional; details: read-out: GI
[3] = Growth inhibition of Balb/c mouse 3T3 clone A31 cells after 72 hrs by MTT assay; assay type: cell-based; details: Balb/c 3T3 clone A31 cells
LNCaP [4] = experiment: Cell cycle arrest in testosterone-stimulated human LNCAP cells assessed as G2/M phase accumulation at 8 uM after 3 days (reference value: 8.2%); assay type: functional
LNCaP [5] = experiment: Cell cycle arrest in testosterone-stimulated human LNCAP cells assessed as S phase accumulation at 8 uM after 3 days (reference value: 14.1%); assay type: functional
[6] = Selectivity index, ratio of GI50 for Balb/c mouse 3T3 clone A31 cells to GI50 for AR signaling pathway in testosterone-stimulated human LNCAP cells assessed as cell growth inhibition
LNCaP [7] = experiment: Cell cycle arrest in testosterone-stimulated human LNCAP cells assessed as S phase accumulation at 8 uM after 5 days (reference value: 15.1%); assay type: functional
LNCaP [8] = experiment: Cell cycle arrest in testosterone-stimulated human LNCAP cells assessed as G1 phase accumulation at 8 uM after 5 days (reference value: 63.4%); assay type: functional
LNCaP [9] = experiment: Cell cycle arrest in testosterone-stimulated human LNCAP cells assessed as G0 phase accumulation at 8 uM after 3 days (reference value: 3.9%); assay type: functional
[10] = Growth inhibition of Balb/c mouse 3T3 clone A31 cells at 250 uM after 72 hrs by MTT assay relative to control; assay type: cell-based; details: Balb/c 3T3 clone A31 cells, read-out: GI
[11] = target: T1, Androgen receptor (Homo sapiens)
Description: Inhibition of AR signaling pathway in testosterone-stimulated human LNCAP cells assessed as cell growth inhibition by flow cytometry

LNCaP [12] = experiment: Cell cycle arrest in testosterone-stimulated human LNCAP cells assessed as G1 phase accumulation at 8 uM after 3 days (reference value: 73.8%); assay type: functional
LNCaP [13] = experiment: Cell cycle arrest in testosterone-stimulated human LNCAP cells assessed as G2/M phase accumulation at 8 uM after 5 days (reference value: 13.3%); assay type: functional
[14] = target: T1, Androgen receptor (Homo sapiens); remark: listed apart in the source
Description: Inhibition of AR signaling pathway in testosterone-stimulated human LNCAP cells assessed as cell growth inhibition after 6 days by MTT assay

LNCaP [15] = experiment: Cell cycle arrest in testosterone-stimulated human LNCAP cells assessed as G0 phase accumulation at 8 uM after 5 days (reference value: 8.2%); assay type: functional

| Structure (SMILES) | inhibition [1] | inhibition of growth at 100 µM (PC-3) | inhibition of growth at 100 µM (DU-145) | inhibition of growth at 100 µM (LNCaP [2]) | other results |
| --- | --- | --- | --- | --- | --- |
| N#Cc1cc(F)c(N2CCN(C(=O)c3ccsc3)CC2)c(F)c1 | inactive | ≤ 50% | ≤ 50% | ≤ 50% |  |
| N#Cc1ccc(N2CCN(C(=O)c3ccc(=O)[nH]c3)CC2)c(F)c1 | inactive | ≤ 50% | ≤ 50% | ≤ 50% |  |
| CC(C(=O)Nc1ccc(C#N)cc1)N1CCN(c2ccc(O)cc2)CC1 (stereo unspecified) | inactive | ≤ 50% | ≤ 50% | ≤ 50% |  |
| N#Cc1ccc(NC(=O)COC(=O)Cc2ccc(Cl)c(Cl)c2)cc1 | inactive | ≤ 50% | ≤ 50% | ≤ 50% |  |
| N#Cc1ccc(NC(=O)COC(=O)Cc2ccc(F)cc2)cc1Cl | inactive | ≤ 50% | ≤ 50% | ≤ 50% |  |
| N#Cc1ccc(NC(=O)CSc2nc3ccc([N+](=O)[O-])cc3s2)cc1 | inactive | ≤ 50% | ≤ 50% | ≤ 50% |  |
| N#Cc1ccc(C(=O)N2CCN(c3ccc(F)cc3)CC2)c(F)c1 | inactive | ≤ 50% | ≤ 50% | ≤ 50% |  |
| CC1CCCN(C(=O)C2CCN(c3ccc(C#N)cc3F)CC2)C1 (stereo unspecified) | inactive | ≤ 50% | ≤ 50% | ≤ 50% |  |
| Cc1cc(NC(=O)N2CCN(c3ccc(C#N)cc3F)CC2)on1 | inactive | ≤ 50% | ≤ 50% | ≤ 50% |  |
| CNC(=O)c1ccc(N2C(=S)N(c3ccc(C#N)c(C(F)(F)F)c3)C(=O)C2(C)C)cc1F [ENZALUTAMIDE] |  |  |  |  | GI50 at 72 h [3]: 27.5 µM |
| N#Cc1ccc(CN2CCN(C(=O)Cn3ccc(=O)[nH]c3=O)CC2)cc1 | inactive | ≤ 50% | ≤ 50% | ≤ 50% |  |
| N#Cc1ccc(CN2CCN(C(=O)c3ccc(F)c(F)c3)CC2)cc1 | inactive | ≤ 50% | ≤ 50% | ≤ 50% |  |
| Cc1ccc2[nH]c3c(SCC(=O)Nc4cccc(C#N)c4)ncnc3c2c1 | Active | ≤ 50% | ≤ 50% | ≤ 50% | Activity (LNCaP [4]): 15.1%; Activity (LNCaP [5]): 18.4%; RatioGI50 [6]: >11; Activity (LNCaP [7]): 15.7%; Activity (LNCaP [8]): 68.7%; Activity (LNCaP [9]): 1.9%; inhibition at 72 h, 250 µM [10]: 20%; GI50 [11]: 22.6 µM; Activity (LNCaP [12]): 64.6%; Activity (LNCaP [13]): 9.3%; GI50 [14]: 22.4 µM; Activity (LNCaP [15]): 6.3% |
| N#Cc1ccc(NC(=O)COC(=O)Cc2cccs2)cc1Cl | Active | ≤ 50% | ≤ 50% | ≤ 50% |  |
| N#Cc1ccc(CN2CCN(C(=O)C3CCCC3)CC2)c(F)c1 | inactive | ≤ 50% | ≤ 50% | ≤ 50% |  |
| CC(OC(=O)Cc1cc2c(s1)CCC2)C(=O)Nc1ccc(C#N)cc1 (stereo unspecified) | inactive | ≤ 50% | ≤ 50% | ≤ 50% |  |
| O=C(CSc1ncnc2c1[nH]c1ccccc12)Nc1cccc(F)c1 | inactive | ≤ 50% | ≤ 50% | ≤ 50% |  |
| O=C(CSc1ncnc2c1[nH]c1ccccc12)Nc1ccc(F)cc1 | inactive | ≤ 50% | ≤ 50% | ≤ 50% |  |
